{"source": "ChEMBL document CHEMBL2074175", "about": "“Transport of cyclic nucleotides and estradiol 17-beta-D-glucuronide by multidrug resistance protein 4. Resistance to 6-mercaptopurine and 6-thioguanine” (J Biol Chem, 2001)", "molecules": {"B1": {"name": "ATP-binding cassette sub-family C member 4 (Homo sapiens) (protein)", "chain": "MLPVYQEVKPNPLQDANLCSRVFFWWLNPLFKIGHKRRLEEDDMYSVLPEDRSQHLGEELQGFWDKEVLRAENDAQKPSLTRAIIKCYWKSYLVLGIFTLIEESAKVIQPIFLGKIINYFENYDPMDSVALNTAYAYATVLTFCTLILAILHHLYFYHVQCAGMRLRVAMCHMIYRKALRLSNMAMGKTTTGQIVNLLSNDVNKFDQVTVFLHFLWAGPLQAIAVTALLWMEIGISCLAGMAVLIILLPLQSCFGKLFSSLRSKTATFTDARIRTMNEVITGIRIIKMYAWEKSFSNLITNLRKKEISKILRSSCLRGMNLASFFSASKIIVFVTFTTYVLLGSVITASRVFVAVTLYGAVRLTVTLFFPSAIERVSEAIVSIRRIQTFLLLDEISQRNRQLPSDGKKMVHVQDFTAFWDKASETPTLQGLSFTVRPGELLAVVGPVGAGKSSLLSAVLGELAPSHGLVSVHGRIAYVSQQPWVFSGTLRSNILFGKKYEKERYEKVIKACALKKDLQLLEDGDLTVIGDRGTTLSGGQKARVNLARAVYQDADIYLLDDPLSAVDAEVSRHLFELCICQILHEKITILVTHQLQYLKAASQILILKDGKMVQKGTYTEFLKSGIDFGSLLKKDNEESEQPPVPGTPTLRNRTFSESSVWSQQSSRPSLKDGALESQDTENVPVTLSEENRSEGKVGFQAYKNYFRAGAHWIVFIFLILLNTAAQVAYVLQDWWLSYWANKQSMLNVTVNGGGNVTEKLDLNWYLGIYSGLTVATVLFGIARSLLVFYVLVNSSQTLHNKMFESILKAPVLFFDRNPIGRILNRFSKDIGHLDDLLPLTFLDFIQTLLQVVGVVSVAVAVIPWIAIPLVPLGIIFIFLRRYFLETSRDVKRLESTTRSPVFSHLSSSLQGLWTIRAYKAEERCQELFDAHQDLHSEAWFLFLTTSRWFAVRLDAICAMFVIIVAFGSLILAKTLDAGQVGLALSYALTLMGMFQWCVRQSAEVENMMISVERVIEYTDLEKEAPWEYQKRPPPAWPHEGVIIFDNVNFMYSPGGPLVLKHLTALIKSQEKVGIVGRTGAGKSSLISALFRLSEPEGKIWIDKILTTEIGLHDLRKKMSIIPQEPVLFTGTMRKNLDPFNEHTDEELWNALQEVQLKETIEDLPGKMDTELAESGSNFSVGQRQLVCLARAILRKNQILIIDEATANVDPRTDELIQKKIREKFAHCTVLTIAHRLNTIIDSDKIMVLDSGRLKEYDEPYVLLQNKESLFYKMVQQLGKAEAAALTETAKQVYFKRNYPHIGHTDHMVTNTSNGQPSTLTIFETAL"}}, "key": {"[1]": {"target": "T1, ATP-binding cassette sub-family C member 4 (Homo sapiens, UniProt O15439)", "T1 sequence (O15439 whole entry)": "B1 chain", "assay": "TP_TRANSPORTER: inhibition of E217betaG uptake (E217betaG: 1 uM, cGMP: 300 uM) in membrane vesicles from MRP4-expressing Sf9 cells", "format": "functional, cell membranes, Membrane vesicle", "design": "scale not given: the % may be the effect or the level left", "conditions": "sf9, 300 µM"}, "[2]": {"target": "T1, ATP-binding cassette sub-family C member 4", "assay": "TP_TRANSPORTER: efflux in MRP4-expressing NIH3T3 cells", "format": "functional, cell-based", "conditions": "mouse"}, "MRP4 (ABCC4)": {"target": "T2, MRP4 (ABCC4) (Homo sapiens, UniProt O15439)", "T2 sequence (O15439 whole entry)": "B1 chain", "assay": "TP_TRANSPORTER: inhibition of E217betaG uptake (E217betaG: 1 uM, MTX: 300 uM) in membrane vesicles from MRP4-expressing Sf9 cells", "format": "functional, cell membranes, Membrane vesicle", "design": "scale not given: the % may be the effect or the level left", "conditions": "probe E217betaG (estradiol 17beta-glucuronide), read-out: Activity"}, "[3]": {"substrate": "C[C@]12CC[C@@H]3c4ccc(O)cc4CC[C@H]3[C@@H]1CC[C@@H]2O[C@@H]1O[C@H](C(=O)O)[C@@H](O)[C@H](O)[C@H]1O", "assay": "(§1) TP_TRANSPORTER: uptake in membrane vesicles from MRP4-expressing Sf9 cells", "format": "functional, cell membranes, Membrane vesicle"}, "[4]": {"substrate": "[H][C@@]12COP(=O)(O)O[C@@]1([H])[C@@H](O)[C@H](n1cnc3c(=O)[nH]c(N)nc31)O2", "assay": "as §1", "format": "functional, cell membranes, Membrane vesicle"}}}
{"molecule": "Nc1nc2c(ncn2[C@@H]2O[C@@H]3COP(=O)(O)O[C@H]3[C@H]2O)c(=O)[nH]1", "values": [{"measurement": "Activity", "setting": "[1]", "result": 16.2, "unit": "%"}]}
{"molecule": "Sc1ncnc2nc[nH]c12", "note": "[MERCAPTOPURINE ANHYDROUS]", "values": [{"measurement": "Activity", "setting": "[2]", "result": "substrate [+]"}]}
{"molecule": "CN(Cc1cnc2nc(N)nc(N)c2n1)c1ccc(C(=O)N[C@@H](CCC(=O)O)C(=O)O)cc1", "note": "[METHOTREXATE]", "values": [{"measurement": "activity at 300 µM", "setting": "MRP4 (ABCC4)", "result": 40.3, "unit": "%"}]}
{"molecule": "B1", "values": [{"measurement": "Km", "setting": "[3]", "result": 30.3, "unit": "µM"}, {"measurement": "Km", "setting": "[4]", "result": 9.69, "unit": "µM"}]}
